Results reported in paper PMC11674118, “New High-Affinity Peptide Ligands for Kv1.2 Channel: Selective Blockers and Fluorescent Probes” (Cells, 2024).
Where two headings read alike, the source gives them in different places. *1 amine or outer side, *2 acyl side, *3 side chain or, on linkers, in order; H or OH if unused. Where a SMILES comes first, the peptide text is derived from it. Bridges are numbered along the chain shown (N, C = ends). [ ]: non-standard residue; d: D form. The star is where a group is joined. X1 = N=c1ccc2c(-c3ccccc3C(=O)*)c3ccc(N)c(S(=O)(=O)O)c3oc-2c1S(=O)(=O)O; NMeGABA = CN(CCCC(=O)[*:2])[*:1]

Experiments:
[1] = biological target: Kv1.1 channel (K-Kv1.1); conditions: cited from earlier work
Method: (§1) Previously, labeling of HgTx1 with fluorophores Cy3, Cy5, Alexa 488, Alexa 546, Alexa 594, Alexa 660, and Alexa 680 was performed at the cysteine residue introduced instead of alanine 19 [23].

[2] = biological target: T1, Kv1.3 channel (K-Kv1.3) (Homo sapiens, UniProt P22001); conditions: cited from earlier work
T1 construct: expressed in transfected cells; host or cells: Neuro2a cells; tracer A-HgTx bought from Smartox Biotechnology
T1 sequence (P22001 whole entry): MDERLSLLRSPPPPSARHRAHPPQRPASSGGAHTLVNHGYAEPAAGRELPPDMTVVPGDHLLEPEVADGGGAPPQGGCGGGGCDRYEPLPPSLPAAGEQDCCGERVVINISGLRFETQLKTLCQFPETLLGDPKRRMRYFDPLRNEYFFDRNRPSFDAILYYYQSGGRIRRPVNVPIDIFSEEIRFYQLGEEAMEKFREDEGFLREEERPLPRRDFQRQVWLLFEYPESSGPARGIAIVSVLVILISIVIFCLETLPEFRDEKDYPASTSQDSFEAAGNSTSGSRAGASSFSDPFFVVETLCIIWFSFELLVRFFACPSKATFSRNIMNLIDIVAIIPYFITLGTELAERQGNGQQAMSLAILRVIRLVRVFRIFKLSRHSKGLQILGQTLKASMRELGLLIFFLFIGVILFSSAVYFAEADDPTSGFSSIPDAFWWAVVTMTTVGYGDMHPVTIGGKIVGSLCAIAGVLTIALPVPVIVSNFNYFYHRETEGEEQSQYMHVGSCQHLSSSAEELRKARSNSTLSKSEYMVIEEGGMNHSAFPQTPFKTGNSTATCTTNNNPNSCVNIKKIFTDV
Method: as §1

[3] = biological target: T2, human Kv1.2 channel, mKate2-Kv1.2(S371T) (K-Kv1.2) (Homo sapiens, UniProt P16389, S371T); test: Binding of fluorescent ligands to K-Kv1.2 on living Neuro2a cells (confocal microscopy, Rav titration); conditions: concentration dependence of binding
T2 construct: expressed in transfected cells; host or cells: mouse neuroblastoma Neuro2a cells, transient transfection with pmKate2-KCNA2m1
T2 sequence (P16389 whole entry S371T): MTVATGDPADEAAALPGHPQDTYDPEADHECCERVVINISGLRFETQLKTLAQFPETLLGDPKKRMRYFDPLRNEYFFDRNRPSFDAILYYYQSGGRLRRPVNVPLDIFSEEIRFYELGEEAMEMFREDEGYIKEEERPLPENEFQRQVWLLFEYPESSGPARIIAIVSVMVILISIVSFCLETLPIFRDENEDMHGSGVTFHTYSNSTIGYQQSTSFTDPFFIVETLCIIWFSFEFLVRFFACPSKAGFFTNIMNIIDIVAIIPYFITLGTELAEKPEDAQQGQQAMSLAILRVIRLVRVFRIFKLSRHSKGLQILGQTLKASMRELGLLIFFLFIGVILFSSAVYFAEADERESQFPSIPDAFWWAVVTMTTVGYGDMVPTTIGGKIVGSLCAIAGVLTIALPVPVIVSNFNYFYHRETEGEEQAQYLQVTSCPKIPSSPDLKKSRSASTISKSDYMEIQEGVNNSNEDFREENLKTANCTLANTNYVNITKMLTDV
Method: (§2) Cellular organelles were stained as described earlier. To analyze the binding of Kv1.2 with fluorescent ligands, A-HgTx (0.06–2 nM) or HgTx-G (0.06–0.5 nM) was added to cells in a complete medium for 90–120 min. To analyze competitive binding, HgTx-G (0.5 nM) was added to cells together with the studied peptide (0.1–0.8 nM HgTx1; 0.05–0.8 nM MgTx; 5–20 nM ChTx; 50–400 nM AgTx2; 0.05–0.2 nM Ce1; 0.2–5 nM Ce4) in a complete medium for 90–120 min.
(§3) Microscopy was carried out using an SP2 confocal microscope with an HCX PL APO 63×/1.2 objective (Leica Microsystems GmbH, Wetzlar, Germany). The size of the confocal diaphragm corresponded to 1 Airy disk. Typical voxel size was 0.06 × 0.06 × 0.9 µm except for serial ligand binding experiments, where its size was 0.23 × 0.23 × 0.9 µm. […]
(§4) Quantitative analysis of the interaction of fluorescent ligands with Kv1.2 was carried out using Image J software (version 1.48, National Institute of Health, Bethesda, MD, USA) as described earlier. This analysis was based on calculating the ratio of the fluorescent intensities of the bound ligand to the channel (Ri) in each selected region of interest on the plasma membrane for the confocal images of 20–25 measured cells, followed by calculating the average value (Rav) and standard deviation. […]

[4] = biological target: T3, human Kv1.2 channel, mKate2-Kv1.2(S371T, N469L) (K-Kv1.2m2) (Homo sapiens, UniProt P16389, N469L/S371T); test: Binding of fluorescent ligand to K-Kv1.2m2 on living Neuro2a cells (confocal microscopy, Rav titration)
T3 construct: expressed in transfected cells; host or cells: mouse neuroblastoma Neuro2a cells, transient transfection with pmKate2-KCNA2m1m2
T3 sequence (P16389 whole entry S371T/N469L): as the sequence (P16389 whole entry S371T) above, with N469L counted along it
Method: as §2, §3, §4

[5] = biological target: T4, human Kv1.2 channel (K-Kv1.2) (Homo sapiens, UniProt P16389, S371T); test: Competitive displacement of HgTx-G from complexes with K-Kv1.2 on Neuro2a cells; assay type: binding; conditions: displacement of HgTx-G (0.5 nM), 90-120 min, Cheng-Prusoff, triplicate, mean ± SD, read-out: apparent dissociation constant (Kap), Kv1.2
T4 construct: expressed in transfected cells; host or cells: mouse neuroblastoma Neuro2a cells, transient transfection with pmKate2-KCNA2m1; tracer HgTx-G made in E. coli Rosetta-gami(DE3)pLysS
T4 sequence (P16389 whole entry S371T): as the sequence (P16389 whole entry S371T) above
Method: as §2
Quantitative analysis of the interaction of fluorescent ligands with Kv1.2 was carried out using Image J software (version 1.48, National Institute of Health, Bethesda, MD, USA) as described earlier. This analysis was based on calculating the ratio of the fluorescent intensities of the bound ligand to the channel (Ri) in each selected region of interest on the plasma membrane for the confocal images of 20–25 measured cells, followed by calculating the average value (Rav) and standard deviation.
The peptide concentration (DC50) displacing 50% of the fluorescent ligand from the complex with Kv1.2 was estimated by the dependence of Rav on the concentration (C) of the added peptide at the fixed concentration of the fluorescent ligand:Rav(C)/Rav0 = 1/(1 + C/DC50)(2) […]
The apparent dissociation constant (Kap) of the complex between Kv1.2 and the studied peptide was calculated using the Cheng–Prusoff equation:Kap = DC50/(1 + L/Kd)(3) […]

[6] = test system: human Kv1.2 channels; conditions: patch-clamp, mammalian cells; read-out: 50% decrease of current, human Kv1.2; cited from earlier work
From the text: (§5) Kap of MgTx in our experiments is consistent with the last value.

[7] = test system: Kv1.2 channels; conditions: mammalian cells with depolarized membranes; read-out: 50% inhibition of the Rb+ flux through Kv1.2; cited from earlier work
From the text: as §5

[8] = biological target: Kv1.1 channel (K-Kv1.1); conditions: similar analytical system, read-out: Kap, Kv1.1; cited from earlier work
From the text: Table 2 Sequences of Ce1, Ce4, HgTx1, and MgTx peptides and dissociation constants (Kap, nM) of their complexes with Kv1.2, Kv1.1, and Kv1.3 channels. | column: Kap, nM

## CC[C@H](C)[C@@H]1NC(=O)CNC(=O)[C@H](Cc2ccccc2)NC(=O)[C@H](CCC(N)=O)NC(=O)[C@H](C)NC(=O)[C@H](CCCCN)NC(=O)[C@@H]2CSSC[C@@H](C(=O)N[C@@H](Cc3ccc(O)cc3)C(=O)N3CCC[C@H]3C(=O)N[C@@H](Cc3c[nH]cn3)C(=O)O)NC(=O)[C@H](CCCCN)NC(=O)[C@@H]3CSSC[C@H](NC(=O)[C@H](CCC(N)=O)NC(=O)[C@H](CCCCN)NC(=O)[C@@H]4CCCN4C(=O)[C@H](CO)NC(=O)[C@H]([C@@H](C)O)NC(=O)[C@@H](NC(=O)[C@H](CCCCN)NC(=O)[C@@H](NC(=O)[C@H](CC(=O)O)NC(=O)[C@@H](NC(=O)[C@@H](NC(=O)[C@@H](NC(=O)CCCN(C)C(=O)c4ccccc4-c4c5ccc(=N)c(S(=O)(=O)O)c-5oc5c(S(=O)(=O)O)c(N)ccc45)[C@@H](C)O)C(C)C)[C@@H](C)CC)C(C)C)CSSC[C@H](NC(=O)[C@H](CCCCN)NC(=O)[C@H](C)NC(=O)CNC(=O)[C@H](C)NC(=O)[C@H](CCCNC(=N)N)NC1=O)C(=O)N[C@@H](CCSC)C(=O)N[C@@H](CC(N)=O)C(=O)NCC(=O)N[C@@H](CCCCN)C(=O)N3)C(=O)N[C@@H](CC(C)C)C(=O)N1CCC[C@H]1C(=O)N1CCC[C@H]1C(=O)N2 [A-HgTx] (X1-[NMeGABA]TVIDVKCTSPKQCLPPCKAQFGIRAGAKCMNGKCKCYPH-OH; disulfide 8-30, 14-35, 18-37; C-terminus assumed)
[1]
  Kd: 0.7 ± 0.2 nM
[2]
  Kd: 0.3 ± 0.13 nM
[3]
  binding saturation concentration, K-Kv1.2: ~ 0.5 nM
[4]; concentration dependence of binding, Neuro2a cells
  binding saturation concentration, K-Kv1.2m2: ~ 0.5 nM
[4]; living Neuro2a cells, complete medium, confocal microscopy, triplicate, mean ± SD, SD, read-out: dissociation constant (Kd) of the complex with K-Kv1.2m2
  Kd: 0.08 ± 0.02 nM

## CC[C@H](C)[C@@H]1NC(=O)[C@@H]2CSSC[C@@H]3NC(=O)[C@H](CCCCN)NC(=O)[C@H](CCCNC(=N)N)NC(=O)[C@H](CC(N)=O)NC(=O)[C@H](CCSC)NC(=O)[C@H](CSSC[C@H](NC(=O)[C@H](CO)NC(=O)[C@@H](NC(=O)[C@H](CC(N)=O)NC(=O)[C@@H](NC(=O)[C@@H]4CCCN4C(=O)[C@@H](NC(=O)CN)C(C)C)[C@@H](C)CC)C(C)C)C(=O)N[C@@H]([C@@H](C)O)C(=O)NCC(=O)N[C@@H](CO)C(=O)N4CCC[C@H]4C(=O)N[C@@H](CCC(N)=O)C(=O)N2)NC(=O)[C@H](CCCCN)NC(=O)CNC(=O)[C@H](Cc2ccccc2)NC(=O)[C@H](CCCNC(=N)N)NC(=O)[C@H](CCSC)NC(=O)CNC(=O)[C@H](C)NC(=O)[C@H](CC(=O)O)NC(=O)[C@H](CCCCN)NC(=O)[C@H](CSSC[C@@H](C(=O)N[C@H](C(=O)N2CCC[C@H]2C(=O)N[C@@H](CCCCN)C(=O)O)[C@@H](C)O)NC(=O)[C@H](Cc2c[nH]cn2)NC3=O)NC(=O)[C@@H]2CCCN2C(=O)[C@H](CCCCN)NC1=O [AgTx2]
[5]
  Kd: 21.5 ± 1.2 nM

## CC[C@H](C)[C@H](NC(=O)[C@@H](N)[C@@H](C)O)C(=O)N[C@H](C(=O)N[C@@H](CC(N)=O)C(=O)N[C@H](C(=O)N[C@@H](CCCCN)C(=O)N[C@H]1CSSC[C@@H]2NC(=O)[C@H](CCCCN)NC(=O)[C@H](C)NC(=O)CNC(=O)[C@H](C)NC(=O)[C@H](CO)NC(=O)[C@H](CCC(N)=O)NC(=O)CNC(=O)[C@H](Cc3ccccc3)NC(=O)[C@H](CCC(N)=O)NC(=O)[C@H](C)NC(=O)[C@H](CCCCN)NC(=O)[C@@H]3CSSC[C@@H](C(=O)N[C@@H](Cc4ccc(O)cc4)C(=O)N4CCC[C@H]4C(=O)N[C@@H](Cc4c[nH]cn4)C(=O)O)NC(=O)[C@H](CCCCN)NC(=O)[C@H](CSSC[C@H](NC(=O)[C@H](CCC(N)=O)NC(=O)[C@H](CCCCN)NC(=O)[C@@H]4CCCN4C(=O)[C@H](CO)NC(=O)[C@H]([C@@H](C)O)NC1=O)C(=O)N[C@@H](CC(C)C)C(=O)N1CCC[C@H]1C(=O)N1CCC[C@H]1C(=O)N3)NC(=O)[C@H](CCCCN)NC(=O)CNC(=O)[C@H](CC(N)=O)NC(=O)[C@H](CCSC)NC2=O)C(C)C)[C@@H](C)CC [MgTx, margatoxin] (H-TIINVKCTSPKQCLPPCKAQFGQSAGAKCMNGKCKCYPH-OH; disulfide 7-29, 13-34, 17-36 (inferred); N-terminus and C-terminus assumed)
[6]
  IC50: 0.006 nM
[7]
  IC50: 0.675 nM
[8]
  Kd: 0.3 ± 0.2 nM
